Where two headings read alike, the source gives them in different places.
Experiments:
[1] = system: DyP1 (OFU1; recombinant DyP1 from mangrove soils); conditions: read-out: Parameters / Km; H2O2 0.25 mM co-substrate; 100 mM citrate-phosphate pH 3; 30 °C
[2] = system: T1, DyP1 (OFU1; recombinant DyP1 from mangrove soils); assay: dye decolorization at […] nm, Michaelis-Menten fit; format: biochemical; conditions: H2O2 0.25 mM co-substrate; 100 mM citrate-phosphate pH 2.6; 30 °C; read-out: Parameters / Km
T1 construct: codon-optimized synthetic cDNA from environmental cDNA capture; secreted from Pichia pastoris X33 (pPICZalphaA), C-terminal His6 tag; expected 55 kDa, about 70 kDa glycosylated on SDS-PAGE

| SMILES | Km [1] [µM] | Km [2] [µM] |
| --- | --- | --- |
| CCn1c(=NN=c2sc3cc(S(=O)(=O)O)ccc3n2CC)sc2cc(S(=O)(=O)O)ccc21 [ABTS] | 651 ± 81 |  |
| Nc1c(S(=O)(=O)O)cc(Nc2cccc(S(=O)(=O)CCOS(=O)(=O)O)c2)c2c1C(=O)c1ccccc1C2=O [RB19] |  | 1500 ± 878 |

Source: paper PMC8143184, “Exploring the Diversity of Fungal DyPs in Mangrove Soils to Produce and Characterize Novel Biocatalysts” (Journal of Fungi, 2021)
